Reference: ChEMBL document CHEMBL2034833, “Synthesis of chalcone-amidobenzothiazole conjugates as antimitotic and apoptotic inducing agents” (Bioorg Med Chem, 2012)
Activity calls are given as the source filed them. The calls are words filed in the database; no cut-off is given here.

Key:
UACC-257 = experiment: Growth inhibition of human UACC257 cells after 48 hrs by sulforhodamine B assay; assay type: functional; settings: UACC-257, 48 h
HT-29 = experiment: Growth inhibition of human HT-29 cells after 48 hrs by sulforhodamine B assay; assay type: functional; settings: HT-29, 48 h
MOLT-4 = experiment: Growth inhibition of human MOLT4 cells after 48 hrs by sulforhodamine B assay; assay type: functional; settings: MOLT-4, 48 h
SK-MEL-2 = experiment: Growth inhibition of human SK-MEL-2 cells after 48 hrs by sulforhodamine B assay; assay type: functional; settings: SK-MEL-2, 48 h
MDA-MB-468 = experiment: Growth inhibition of human MDA-MB-468 cells after 48 hrs by sulforhodamine B assay; assay type: functional; settings: MDA-MB-468, 48 h
A549 [1] = experiment: Cell cycle arrest in human A549 cells assessed as cell accumulation at G0/G1 phase at 4 uM after 48 hrs by propidium iodide staining based flow cytometry (reference value: 70.15%); assay type: functional
HCC 2998 = experiment: Growth inhibition of human HCC2998 cells after 48 hrs by sulforhodamine B assay; assay type: functional; settings: HCC 2998, 48 h
OVCAR-8 = experiment: Growth inhibition of human OVCAR8 cells after 48 hrs by sulforhodamine B assay; assay type: functional; settings: OVCAR-8, 48 h
M14 = experiment: Growth inhibition of human M14 cells after 48 hrs by sulforhodamine B assay; assay type: functional; settings: M14, 48 h
NCI-H460 = experiment: Growth inhibition of human NCI-H460 cells after 48 hrs by sulforhodamine B assay; assay type: functional; settings: NCI-H460, 48 h
Tubulin (Homo sapiens) = Tubulin (Homo sapiens) (UniProt P68371+Q9H4B7+P0DPH7+P68366+Q13509+Q71U36+P04350+Q3ZCM7+P07437+P68363+Q9BQE3+Q6PEY2+Q13885+Q9BVA1+Q9BUF5); experiment: Inhibition of tubulin polymerization in human A549 cells assessed as disrupted microtubule organization at 2 uM after 48 hrs by immunohistochemistry analysis; assay type: cell-based
A549 [2] = experiment: Growth inhibition of human A549 cells after 48 hrs by sulforhodamine B assay; assay type: functional; settings: A549, 48 h
K562 = experiment: Growth inhibition of human K562 cells after 48 hrs by sulforhodamine B assay; assay type: functional; settings: K562, 48 h
A549 [3] = experiment: Cell cycle arrest in human A549 cells assessed as cell accumulation at S phase at 4 uM after 48 hrs by propidium iodide staining based flow cytometry (reference value: […]); assay type: functional
NCI-H322M = experiment: Growth inhibition of human NCI-H322M cells after 48 hrs by sulforhodamine B assay; assay type: functional
MDA-MB-231 = experiment: Growth inhibition of human MDA-MB-231 cells after 48 hrs by sulforhodamine B assay; assay type: functional; settings: MDA-MB-231, 48 h
RPMI-8226 = experiment: Growth inhibition of human RPMI8226 cells after 48 hrs by sulforhodamine B assay; assay type: functional; settings: RPMI-8226, 48 h
HOP-92 = experiment: Growth inhibition of human HOP92 cells after 48 hrs by sulforhodamine B assay; assay type: functional; settings: HOP-92, 48 h
CCRF-CEM = experiment: Growth inhibition of human CCRF-CEM cells after 48 hrs by sulforhodamine B assay; assay type: functional
SNB-19 = experiment: Growth inhibition of human SNB19 cells after 48 hrs by sulforhodamine B assay; assay type: functional; settings: SNB-19, 48 h
A549 [4] = experiment: Cell cycle arrest in human A549 cells assessed as cell accumulation at G0/G1 phase at 2 uM after 48 hrs by propidium iodide staining based flow cytometry (reference value: 70.15%); assay type: functional
LOX IMVI = experiment: Growth inhibition of human LOXIMVI cells after 48 hrs by sulforhodamine B assay; assay type: functional
ACHN = experiment: Cytotoxicity against human ACHN cells after 48 hrs by MTT assay; assay type: functional, cell-based
TK-10 = experiment: Growth inhibition of human TK10 cells after 48 hrs by sulforhodamine B assay; assay type: functional; settings: TK-10, 48 h
SF-295 = experiment: Growth inhibition of human SF295 cells after 48 hrs by sulforhodamine B assay; assay type: functional; settings: SF-295, 48 h
COLO 205 = experiment: Growth inhibition of human COLO205 cells after 48 hrs by sulforhodamine B assay; assay type: functional; settings: COLO 205, 48 h
U-251 = experiment: Growth inhibition of human U251 cells after 48 hrs by sulforhodamine B assay; assay type: functional; settings: U-251, 48 h
A549 [5] = experiment: Induction of apoptosis in human A549 cells assessed as viable cells at 2 uM after 48 hrs by annexin-V FITC/propidium iodide staining based FACS analysis; assay type: functional; settings: A549, 48 h, read-out: Activity
SW-620 = experiment: Growth inhibition of human SW620 cells after 48 hrs by sulforhodamine B assay; assay type: functional; settings: SW-620, 48 h
PC-3 = experiment: Growth inhibition of human PC3 cells after 48 hrs by sulforhodamine B assay; assay type: functional; settings: PC-3, 48 h
SF-539 = experiment: Growth inhibition of human SF539 cells after 48 hrs by sulforhodamine B assay; assay type: functional; settings: SF-539, 48 h
SK-MEL-5 = experiment: Growth inhibition of human SK-MEL-5 cells after 48 hrs by sulforhodamine B assay; assay type: functional; settings: SK-MEL-5, 48 h
A549 [6] = experiment: Induction of apoptosis in human A549 cells assessed as increase in caspase3 activity using AFC-conjugated Ac-DEVD as substrate at 2 uM after 48 hrs by fluorescence assay relative to control; assay type: functional
A549 [7] = experiment: Cell cycle arrest in human A549 cells assessed as cell accumulation at G2/M phase at 2 uM after 48 hrs by propidium iodide staining based flow cytometry (reference value: 23.75%); assay type: functional
SNB-75 = experiment: Growth inhibition of human SNB75 cells after 48 hrs by sulforhodamine B assay; assay type: functional; settings: SNB-75, 48 h
UO-31 = experiment: Growth inhibition of human UO31 cells after 48 hrs by sulforhodamine B assay; assay type: functional; settings: UO-31, 48 h
HOP-62 = experiment: Growth inhibition of human HOP62 cells after 48 hrs by sulforhodamine B assay; assay type: functional; settings: HOP-62, 48 h
RXF 393 = experiment: Growth inhibition of human RXF393 cells after 48 hrs by sulforhodamine B assay; assay type: functional; settings: RXF 393, 48 h
OVCAR-3 = experiment: Growth inhibition of human OVCAR3 cells after 48 hrs by sulforhodamine B assay; assay type: functional; settings: OVCAR-3, 48 h
MCF7 = experiment: Growth inhibition of human MCF7 cells after 48 hrs by sulforhodamine B assay; assay type: functional; settings: MCF7, 48 h

SMILES: COc1ccc(/C=C/C(=O)c2cc(OC)c(OC)c(OC)c2)cc1OCC(=O)Nc1nc2ccc(OC(F)(F)F)cc2s1
- GI50 (UACC-257): 8.08 µM
- GI50 (HT-29): 3.66 µM
- GI50 (MOLT-4): 2.89 µM
- GI50 (SK-MEL-2): 4.97 µM
- GI50 (MDA-MB-468): 3.52 µM
- Activity (A549 [1]): 8.68%
- GI50 (HCC 2998): 6.18 µM
- GI50 (OVCAR-8): 1.54 µM
- GI50 (M14): 1.72 µM
- GI50 (NCI-H460): 2.43 µM
- inhibition (Tubulin (Homo sapiens)): Active
- GI50 (A549 [2]): 1.99 µM
- GI50 (K562): 0.43 µM
- Activity (A549 [3]): 4.95%
- GI50 (NCI-H322M): 2.77 µM
- GI50 (MDA-MB-231): 2.01 µM
- GI50 (RPMI-8226): 2.02 µM
- GI50 (HOP-92): 2.14 µM
- GI50 (CCRF-CEM): 2.5 µM
- GI50 (SNB-19): 1.58 µM
- Activity (A549 [4]): 8.51%
- GI50 (LOX IMVI): 0.47 µM
- IC50 (ACHN): 1.73 µM
- GI50 (TK-10): 2.08 µM
- GI50 (SF-295): 2.21 µM
- GI50 (COLO 205): 6.37 µM
- GI50 (U-251): 0.7 µM
- viability at 2 µM (A549 [5]): 30.4%
- GI50 (SW-620): 1.08 µM
- GI50 (PC-3): 3.14 µM
- GI50 (SF-539): 0.3 µM
- GI50 (SK-MEL-5): 2.03 µM
- fold change (FC) (A549 [6]): 4
- Activity (A549 [7]): 80.73%
- GI50 (SNB-75): 0.34 µM
- GI50 (UO-31): 1.61 µM
- GI50 (HOP-62): 2.12 µM
- GI50 (RXF 393): 1.58 µM
- GI50 (OVCAR-3): 1.52 µM
- GI50 (MCF7): 1.32 µM
